Read-outs that look alike come from different tables or passages of the source.
Assays:
CD19 CAR T cells = assay: CAR T cell cytokine production (Luminex) under CD19 K562, KIP-1 or CD2/3/28 stimulation
Description: Cryopreserved healthy donor CLP CD19 CAR T cells were thawed and rested overnight in 100 U/ml of IL-2 at 1×10^6/ml. 2.5×10^5 CD19 CART cells were plated in 96-well RB plate wells in a total volume of 200 μl of R10 culture media. […] CD19 CART cell cytokine production was allowed to proceed through 72 hours in the presence of stimulator and JAKi or steroid. Following 72 h of culture, 100 μl of the cell supernatant of each well were harvested and stored at −80° C. for later Luminex/Bioplex-200 cytokine analysis. Briefly, stored supernatants were thawed and 50 μl of the sample was assayed for cytokines using a ThermoFisher Procarta Plex 19-plex human cytokine assay kit (ThermoFisher, Carlsbad, CA) according to kit manufacturer's instructions and detected using a BioRad Bioplex-200 instrument. The data points generated from the luminex cytokine assay were transferred to a GraphPad PRISM IC50 dose-response curve analysis to generate IC50 or potency values for the JAKi's and steroids tested.

CAR-T cells = assay: CAR-T cell expansion assay (KIP-1 or CD3/CD28 stimulation)
[1] = cited from earlier work
[2] = system: phospho-STAT-1, -3 and -5 in CD4, CD8 T cells and monocytes (CAR T product, PBMCs); assay: Intracellular phospho-STAT-1, -3, -5 by flow cytometry in immune cell subsets of CAR T product and PBMCs; type: cell-based, human
Description: (§1) Further experiments were performed to look at impacts of JAK inhibitors on STAT phosphorylation in various immune cell subsets.

[3] = system: phospho-STAT-1, -3 and -5 in purified CD14+ monocytes; assay: Intracellular phospho-STAT-1, -3, -5 by BD PhosphoFlow in purified monocytes; type: cell-based, human; conditions: for Monocyte-specific pSTAT1 signaling, inhibition / Monocyte-specific pSTAT3 signaling, inhibition / Monocyte-specific pSTAT5 signaling, inhibition: purified CD14+ monocytes
Description: as §1

[4] = CAR T cell-derived supernatant, 30 min
[5] = purified monocytes, CAR T derived cytokines/supernatant stimulation, 30 min

For `Nc1nc2cccc(-c3ccc(CN4CCS(=O)(=O)CC4)cc3)n2n1` [GS-829845], the “suppression of cytokine production from CAR T cells (breadth and magnitude)” value (CD19 CAR T cells) was “weaker in activity compared to filgotinib and other JAK inhibitors”, the “Suppression of cytokine production, IL-6 (IC50)” value (“Suppression … IL-6 (IC50)” for short) (CD19 CAR T cells; CD3/CD28 stimulation, 72 h) was “Suppress” and the “Suppression of cytokine production, MCP-1 (IC50)” value (from here on “Suppression … MCP-1 (IC50)”) (CD19 CAR T cells; CD3/CD28 stimulation, 72 h) was “Suppress”. For the same compound, the “Suppression of cytokine production, TNFa (IC50)” value (shortened to “Suppression … TNFa (IC50)”) (CD19 CAR T cells; CD3/CD28 stimulation, 72 h) was “Suppress”, the “Suppression … IL-6 (IC50)” value (CD19 CAR T cells; K562-CD19 stimulation, 72 h) was “Suppress” and the “Suppression … MCP-1 (IC50)” value (CD19 CAR T cells; K562-CD19 stimulation, 72 h) was “Suppress”. For the same compound, the “Suppression of cytokine production, MIG (IC50)” value (CD19 CAR T cells; K562-CD19 stimulation, 72 h) was “Suppress”, the “Suppression … TNFa (IC50)” value (CD19 CAR T cells; K562-CD19 stimulation, 72 h) was “Suppress” and the “Suppression … IL-6 (IC50)” value (CD19 CAR T cells; KIP-1 stimulation, 72 h) was “Suppress”. The “Suppression … MCP-1 (IC50)” value (CD19 CAR T cells; KIP-1 stimulation, 72 h) was “Suppress”, the “Suppression … TNFa (IC50)” value (CD19 CAR T cells; KIP-1 stimulation, 72 h) was “Suppress” and the IC50 (CD19 CAR T cells; read-out: Suppression of cytokine production, GMCSF (IC50), CD3/CD28 stimulation, 72 h) was > 10 µM. For the same compound, the IC50 (CD19 CAR T cells; read-out: Suppression of cytokine production, GMCSF (IC50), K562-CD19 stimulation, 72 h) was > 10 µM, the IC50 (CD19 CAR T cells; read-out: Suppression of cytokine production, GMCSF (IC50), KIP-1 stimulation, 72 h) was > 10 µM and the IC50 (CD19 CAR T cells; read-out: Suppression of cytokine production, GzB (IC50), CD3/CD28 stimulation, 72 h) was > 10 µM. The IC50 (CD19 CAR T cells; read-out: Suppression of cytokine production, GzB (IC50), K562-CD19 stimulation, 72 h) was > 10 µM, the IC50 (CD19 CAR T cells; read-out: Suppression of cytokine production, GzB (IC50), KIP-1 stimulation, 72 h) was > 10 µM and the IC50 (CD19 CAR T cells; read-out: Suppression of cytokine production, IFNg (IC50), CD3/CD28 stimulation, 72 h) was > 10 µM. For the same compound, the IC50 (CD19 CAR T cells; read-out: Suppression of cytokine production, IFNg (IC50), K562-CD19 stimulation, 72 h) was > 10 µM, the IC50 (CD19 CAR T cells; read-out: Suppression of cytokine production, IFNg (IC50), KIP-1 stimulation, 72 h) was > 10 µM and the IC50 (CD19 CAR T cells; read-out: Suppression of cytokine production, IL-2Ra (IC50), CD3/CD28 stimulation, 72 h) was 4.74 µM. For the same compound, the IC50 (CD19 CAR T cells; read-out: Suppression of cytokine production, IL-2Ra (IC50), K562-CD19 stimulation, 72 h) was > 10 µM, the IC50 (CD19 CAR T cells; read-out: Suppression of cytokine production, IL-2Ra (IC50), KIP-1 stimulation, 72 h) was > 10 µM and the IC50 (CD19 CAR T cells; read-out: Suppression of cytokine production, IL-8 (IC50), CD3/CD28 stimulation, 72 h) was > 10 µM. The IC50 (CD19 CAR T cells; read-out: Suppression of cytokine production, IL-8 (IC50), K562-CD19 stimulation, 72 h) was > 10 µM, the IC50 (CD19 CAR T cells; read-out: Suppression of cytokine production, IL-8 (IC50), KIP-1 stimulation, 72 h) was > 10 µM and the IC50 (CD19 CAR T cells; read-out: Suppression of cytokine production, IL-10 (IC50), K562-CD19 stimulation, 72 h) was 4.01 µM. For the same compound, the IC50 (CD19 CAR T cells; read-out: Suppression of cytokine production, IL-10 (IC50), KIP-1 stimulation, 72 h) was 3.93 µM, the IC50 (CD19 CAR T cells; read-out: Suppression of cytokine production, MIG (IC50), CD3/CD28 stimulation, 72 h) was > 10 µM and the IC50 (CD19 CAR T cells; read-out: Suppression of cytokine production, MIG (IC50), KIP-1 stimulation, 72 h) was > 10 µM. The IC50 (CD19 CAR T cells; read-out: Suppression of cytokine production, MIP-1a (IC50), CD3/CD28 stimulation, 72 h) was > 10 µM, the IC50 (CD19 CAR T cells; read-out: Suppression of cytokine production, MIP-1a (IC50), K562-CD19 stimulation, 72 h) was > 10 µM and the IC50 (CD19 CAR T cells; read-out: Suppression of cytokine production, MIP-1a (IC50), KIP-1 stimulation, 72 h) was > 10 µM. The IC50 (CD19 CAR T cells; read-out: Suppression of cytokine production, MIP-1b (IC50), CD3/CD28 stimulation, 72 h) was > 10 µM, the IC50 (CD19 CAR T cells; read-out: Suppression of cytokine production, MIP-1b (IC50), K562-CD19 stimulation, 72 h) was > 10 µM and the IC50 (CD19 CAR T cells; read-out: Suppression of cytokine production, MIP-1b (IC50), KIP-1 stimulation, 72 h) was > 10 µM. For the same compound, the IC50 (CD19 CAR T cells; read-out: Suppression of cytokine production, Perforin (IC50), CD3/CD28 stimulation, 72 h) was > 10 µM, the IC50 (CD19 CAR T cells; read-out: Suppression of cytokine production, Perforin (IC50), K562-CD19 stimulation, 72 h) was > 10 µM and the IC50 (CD19 CAR T cells; read-out: Suppression of cytokine production, Perforin (IC50), KIP-1 stimulation, 72 h) was > 10 µM. For the same compound, the “% viability” value (CAR-T cells; CD3/CD28, dose 1000 nM, day 0) was 75%, the “% viability” value (CAR-T cells; CD3/CD28, dose 1000 nM, day 4) was 55.6% and the “% viability” value (CAR-T cells; CD3/CD28, dose 1000 nM, day 8) was 76.2%. The “% viability” value (CAR-T cells; CD3/CD28, dose 1000 nM, day 12) was 88.9%, the “% viability” value (CAR-T cells; CD3/CD28, dose 5000 nM, day 0) was 75% and the “% viability” value (CAR-T cells; CD3/CD28, dose 5000 nM, day 4) was 56.5%. The “% viability” value (CAR-T cells; CD3/CD28, dose 5000 nM, day 8) was 75.6%, the “% viability” value (CAR-T cells; CD3/CD28, dose 5000 nM, day 12) was 88.8% and the “% viability” value (CAR-T cells; KIP-1, dose 1000 nM, day 0) was 75%. The “% viability” value (CAR-T cells; KIP-1, dose 1000 nM, day 4) was 48.4%, the “% viability” value (CAR-T cells; KIP-1, dose 1000 nM, day 8) was 63% and the “% viability” value (CAR-T cells; KIP-1, dose 1000 nM, day 12) was 82.5%. The “% viability” value (CAR-T cells; KIP-1, dose 5000 nM, day 0) was 75%, the “% viability” value (CAR-T cells; KIP-1, dose 5000 nM, day 4) was 60% and the “% viability” value (CAR-T cells; KIP-1, dose 5000 nM, day 8) was 87%. The “% viability” value (CAR-T cells; KIP-1, dose 5000 nM, day 12) was 81.1%, the “effect on T cell expansion” value (CAR-T cells; at the doses tested (Table 40)) was “little to no effect” and the “Cmax” value ([1]; clinical dosing, patient sera, repeat dose studies) was 3540 ng/mL. For the same compound, the Protein binding ([1]; plasma protein binding, reported) was ~58%, the “Primary Cell IL-6 pSTAT1 signaling (% inhibition)” value ([2]; CD4 CART cells) was 18% and the “Primary Cell IL-6 pSTAT3 signaling (% inhibition)” value ([2]; CD4 CART cells) was 6%. For the same compound, the “Primary Cell IL-6 pSTAT5 signaling (% inhibition)” value ([2]; CD4 CART cells) was 29%, the “Primary Cell IL-6 pSTAT1 signaling (% inhibition)” value ([2]; CD8 CART cells) was 11% and the “Primary Cell IL-6 pSTAT3 signaling (% inhibition)” value ([2]; CD8 CART cells) was 2%. For the same compound, the “Primary Cell IL-6 pSTAT5 signaling (% inhibition)” value ([2]; CD8 CART cells) was 17%, the “effect on phosphorylated-STAT-1, -STAT-3 and -STAT5 levels” value ([2]; IL-6 stimulation) was “only a fraction of the filgotinib suppression levels” and the “Primary cell GM-CSF-pSTAT5, inhibition” value ([2]; Monocytes within bulk PBMCs) was 3%. For the same compound, the “Primary Cell IL-6 pSTAT1 signaling (% inhibition)” value ([2]; PBMC CD4 T cells) was 25%, the “Primary Cell IL-6 pSTAT3 signaling (% inhibition)” value ([2]; PBMC CD4 T cells) was 15% and the “Primary Cell IL-6 pSTAT5 signaling (% inhibition)” value ([2]; PBMC CD4 T cells) was 36%. The “Primary Cell IL-6 pSTAT1 signaling (% inhibition)” value ([2]; PBMC CD8 T cells) was 10%, the “Primary Cell IL-6 pSTAT3 signaling (% inhibition)” value ([2]; PBMC CD8 T cells) was 11% and the “Primary Cell IL-6 pSTAT5 signaling (% inhibition)” value ([2]; PBMC CD8 T cells) was 24%. The “Primary Cell IL-6 pSTAT1 signaling (% inhibition)” value ([2]; PBMC Monocytes) was 24%, the “Primary Cell IL-6 pSTAT3 signaling (% inhibition)” value ([2]; PBMC Monocytes) was 17% and the “Primary Cell IL-6 pSTAT5 signaling (% inhibition)” value ([2]; PBMC Monocytes) was 21%. The “Primary cell GM-CSF-pSTAT5, inhibition” value ([2]; T cells within bulk PBMCs) was 16%, the “Monocyte-specific pSTAT1 signaling, inhibition” value [3, 4] was 32% and the “Monocyte-specific pSTAT3 signaling, inhibition” value [3, 4] was 80%. The “Monocyte-specific pSTAT5 signaling, inhibition” value [3, 4] was 3%, the “Monocyte-specific pSTAT1 signaling, inhibition” value ([3]; rh-GM-CSF-induced) was “na/ni” and the “Monocyte-specific pSTAT3 signaling, inhibition” value ([3]; rh-GM-CSF-induced) was “na/ni”. The “Monocyte-specific pSTAT5 signaling, inhibition” value ([3]; rh-GM-CSF-induced) was 0%, the “Monocyte-specific pSTAT1 signaling, inhibition” value ([3]; rhIFNg-induced) was 61% and the “Monocyte-specific pSTAT3 signaling, inhibition” value ([3]; rhIFNg-induced) was 100%. The “Monocyte-specific pSTAT5 signaling, inhibition” value ([3]; rhIFNg-induced) was 100%, the “Monocyte-specific pSTAT1 signaling, inhibition” value ([3]; rhIL6-induced) was “na/ni” and the “Monocyte-specific pSTAT3 signaling, inhibition” value ([3]; rhIL6-induced) was 33%. The “Monocyte-specific pSTAT5 signaling, inhibition” value ([3]; rhIL6-induced) was “na/ni”, the pSTAT1 inhibition [3, 5] was 32% and the pSTAT3 inhibition [3, 5] was 80%.

— US12252701B2, “Chimeric antigen receptor T cell therapy” (KITE PHARMA, INC., priority 2020, dated 2025)
